This assay concerns HCT116. The conditions noted are these: 72 h. In outline: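 HCT116 cells were plated at 250 per well in 1536-well plates and allowed 5 h to attach. CellTiter-Glo luminescence was normalized to vehicle as 0% and positive control as -100%, followed by pattern correction. Four-parameter Hill fits provided IC50 and maximal efficacy.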

Structures can show the parent of a compound that is named as a salt. Bounds are passed on as bounds.

Take `COc1ccc2c(c1)c(CC(=O)OC/C=C(\C)CC/C=C(\C)CCC=C(C)C)c(C)n2C(=O)c1ccc(Cl)cc1` [Indomethacin farnesil]: the IC50 cell viability was above 45.8 µM (ICRF193 0 nM) and above 45.8 µM (ICRF193 200 nM).

For `COc1ccc2c(c1)c(CC(=O)O)c(C)n2C(=O)c1ccc(Cl)cc1` [Indomethacin], the IC50 cell viability runs as follows: (ICRF193 0 nM) above 45.8 µM; (ICRF193 200 nM) above 45.8 µM.

As for `O=C(NC1CCN(CCc2c[nH]c3ccccc23)CC1)c1ccccc1` [Indoramin hydrochloride], the IC50 cell viability was above 45.8 µM (ICRF193 0 nM) and above 45.8 µM (ICRF193 200 nM).

On to `Nc1c(I)cc(I)c(C(=O)N(CCC(=O)O)c2ccccc2)c1I` [Iobenzamic acid], for which the IC50 cell viability (ICRF193 0 nM) is above 45.8 µM and the IC50 cell viability (ICRF193 200 nM) is above 45.8 µM.

As for `CNC(=O)c1c(I)c(NC(=O)CCCCC(=O)Nc2c(I)c(C(=O)O)c(I)c(C(=O)NC)c2I)c(I)c(C(=O)O)c1I` [Iocarmic acid], the IC50 cell viability (ICRF193 0 nM) was above 45.8 µM and the IC50 cell viability (ICRF193 200 nM) is above 45.8 µM.

For `CC(=O)N(CC(C)C(=O)O)c1c(I)cc(I)c(N)c1I` (stereo not drawn) [Iocetamic acid], the IC50 cell viability reads like this: (ICRF193 0 nM) above 45.8 µM; (ICRF193 200 nM) above 45.8 µM.

For `CC(=O)NCc1c(I)c(NC(C)=O)c(I)c(C(=O)O)c1I` [Iodamide], the IC50 cell viability is above 45.8 µM (ICRF193 0 nM) and above 45.8 µM (ICRF193 200 nM).

As to `O=C(CCCCC(=O)Nc1c(I)cc(I)c(C(=O)O)c1I)Nc1c(I)cc(I)c(C(=O)O)c1I` [Iodipamide], the IC50 cell viability was above 45.8 µM (ICRF193 0 nM) and above 45.8 µM (ICRF193 200 nM).

As for `CC(=O)N(CC(O)CN(C(C)=O)c1c(I)c(C(=O)NCC(O)CO)c(I)c(C(=O)NCC(O)CO)c1I)c1c(I)c(C(=O)NCC(O)CO)c(I)c(C(=O)NCC(O)CO)c1I` (stereo not drawn) [Iodixanol], the IC50 cell viability was above 45.8 µM (ICRF193 0 nM) and above 45.8 µM (ICRF193 200 nM).

As for `Cc1c(I)c(=O)n(-c2ccccc2)n1C` [Iodoantipyrine], the IC50 cell viability is, setting by setting: (ICRF193 0 nM) above 45.8 µM; (ICRF193 200 nM) above 45.8 µM.

Turning to `O=C(CCOCCOCCOCCOCCC(=O)Nc1c(I)cc(I)c(C(=O)O)c1I)Nc1c(I)cc(I)c(C(=O)O)c1I` [Iodoxamic Acid], the IC50 cell viability is above 45.8 µM (ICRF193 0 nM) and above 45.8 µM (ICRF193 200 nM).

Take `CC(C)NC(C)Cc1ccc(I)cc1` (stereo not drawn) [Iofetamine hydrochloride]: the IC50 cell viability runs as follows: (ICRF193 0 nM) above 45.8 µM; (ICRF193 200 nM) above 45.8 µM.

Compound `CC(=O)N(CC(O)CO)c1c(I)c(C(=O)NCC(O)CO)c(I)c(C(=O)NCC(O)CO)c1I` (stereo not drawn) [Iohexol] displayed an IC50 cell viability (ICRF193 0 nM) above 45.8 µM and an IC50 cell viability (ICRF193 200 nM) above 45.8 µM.

As to `CCOC(=O)c1ncn2c1CN(C)C(=O)c1c(I)cccc1-2` [Iomazenil], the IC50 cell viability reads like this: (ICRF193 0 nM) above 45.8 µM; (ICRF193 200 nM) above 45.8 µM.

For `CN(C(=O)CO)c1c(I)c(C(=O)NCC(O)CO)c(I)c(C(=O)NCC(O)CO)c1I` (stereo not drawn) [Iomeprol], the IC50 cell viability by setting is: (ICRF193 0 nM) above 45.8 µM; (ICRF193 200 nM) above 45.8 µM.

`C[C@H](O)C(=O)Nc1c(I)c(C(=O)NC(CO)CO)c(I)c(C(=O)NC(CO)CO)c1I` [Iopamidol]: the IC50 cell viability was above 45.8 µM (ICRF193 0 nM) and above 45.8 µM (ICRF193 200 nM).

Consider `CCC(Cc1c(I)cc(I)c(N)c1I)C(=O)O` (stereo not drawn) [Iopanoic acid], for which the IC50 cell viability is, setting by setting: (ICRF193 0 nM) above 45.8 µM; (ICRF193 200 nM) above 45.8 µM.

As for `COCC(=O)Nc1c(I)c(C(=O)NCC(O)CO)c(I)c(C(=O)N(C)CC(O)CO)c1I` (stereo not drawn) [Iopromide], the IC50 cell viability runs as follows: (ICRF193 0 nM) above 45.8 µM; (ICRF193 200 nM) above 45.8 µM.

On to `CNC(=O)c1c(I)c(NC(C)=O)c(I)c(C(=O)O)c1I` [Iothalamate sodium], for which the IC50 cell viability was above 45.8 µM (ICRF193 0 nM) and above 45.8 µM (ICRF193 200 nM).

For the compound `O=C(NCC(O)CO)c1c(I)c(C(=O)NCC(O)CO)c(I)c(N(CCO)C(=O)CO)c1I` (stereo not drawn) [Ioversol], the IC50 cell viability runs as follows: (ICRF193 0 nM) above 45.8 µM; (ICRF193 200 nM) above 45.8 µM.

On to `CNC(=O)c1c(I)c(C(=O)NCC(=O)Nc2c(I)c(C(=O)O)c(I)c(C(=O)NCCO)c2I)c(I)c(N(C)C(C)=O)c1I` [Ioxaglic Acid], for which the IC50 cell viability (ICRF193 0 nM) was above 45.8 µM and the IC50 cell viability (ICRF193 200 nM) was above 45.8 µM.

As for `CC(=O)N(CC(O)CO)c1c(I)c(C(=O)NCCO)c(I)c(C(=O)NCC(O)CO)c1I` (stereo not drawn) [Ioxilan], the IC50 cell viability was above 45.8 µM (ICRF193 0 nM) and above 45.8 µM (ICRF193 200 nM).

On to `CC(C)C[C@H]1[C@@H](c2ccccc2)OC(=O)N1CCCN1CCCCCC1` [Ipenoxazone hydrochloride], for which the IC50 cell viability reads like this: (ICRF193 0 nM) above 45.8 µM; (ICRF193 200 nM) above 45.8 µM.

In the case of `CN(C)/C=N/c1c(I)cc(I)c(CCC(=O)O)c1I` [Ipodate sodium], the IC50 cell viability by setting is: (ICRF193 0 nM) above 45.8 µM; (ICRF193 200 nM) above 45.8 µM.

On to `OC[C@H]1O[C@@H](c2ccc(F)c(Cc3cc4ccccc4s3)c2)[C@H](O)[C@@H](O)[C@@H]1O` [Ipragliflozin], for which the IC50 cell viability is, setting by setting: (ICRF193 0 nM) above 45.8 µM; (ICRF193 200 nM) above 45.8 µM.

Regarding `CC(C)[N+]1(C)[C@@H]2CC[C@H]1C[C@@H](OC(=O)C(CO)c1ccccc1)C2` (stereo partly drawn) [Ipratropium bromide], the IC50 cell viability is, setting by setting: (ICRF193 0 nM) above 45.8 µM; (ICRF193 200 nM) above 45.8 µM.

As for `CC(C)Oc1ccc2c(=O)c(-c3ccccc3)coc2c1` [Ipriflavone], the IC50 cell viability is above 45.8 µM (ICRF193 0 nM) and above 45.8 µM (ICRF193 200 nM).

Regarding `CCCCC1=NC2(CCCC2)C(=O)N1Cc1ccc(-c2ccccc2-c2nnn[nH]2)cc1` [Irbesartan], the IC50 cell viability was above 45.8 µM (ICRF193 0 nM) and above 45.8 µM (ICRF193 200 nM).

In the case of `Nc1nc(N)nc(-c2cc(Cl)ccc2Cl)n1` [Irsogladine maleate], the IC50 cell viability by setting is: (ICRF193 0 nM) above 45.8 µM; (ICRF193 200 nM) above 45.8 µM.

Turning to `NC(=O)NC1N=C([O][Al])NC1=O.O.O` (stereo not drawn) [Isalon], the IC50 cell viability is, setting by setting: (ICRF193 0 nM) above 45.8 µM; (ICRF193 200 nM) above 45.8 µM.

For `CN[C@@H]1[C@@H](O)[C@@H](O[C@@H]2[C@@H](O)[C@H](O[C@H]3O[C@H](CN)[C@@H](O)[C@H](O)[C@H]3O)[C@@H](N)C[C@H]2NC(=O)[C@@H](O)CN)OC[C@]1(C)O` [Isepamicin], the IC50 cell viability by setting is: (ICRF193 0 nM) above 45.8 µM; (ICRF193 200 nM) above 45.8 µM.

On to `CC(CC(C#N)(c1ccccc1)C(C)C)N(C)C` (stereo not drawn) [Isoaminile], for which the IC50 cell viability reads like this: (ICRF193 0 nM) above 45.8 µM; (ICRF193 200 nM) above 45.8 µM.

As for `CC(C)COC(=O)c1ccc(N)cc1` [Isocaine], the IC50 cell viability by setting is: (ICRF193 0 nM) above 45.8 µM; (ICRF193 200 nM) above 45.8 µM.

In the case of `Cc1cc(C(=O)NNCc2ccccc2)no1` [Isocarboxazid], the IC50 cell viability reads like this: (ICRF193 0 nM) above 45.8 µM; (ICRF193 200 nM) above 45.8 µM.

As to `C/C=C\c1ccc(O)c(OC)c1` [Isoeugenol], the IC50 cell viability runs as follows: (ICRF193 0 nM) above 45.8 µM; (ICRF193 200 nM) above 45.8 µM.

`CC(=O)OCC(=O)[C@@]1(O)CC[C@H]2[C@@H]3CCC4=CC(=O)C=C[C@]4(C)[C@@]3(F)[C@@H](O)C[C@@]21C` [Isoflupredone acetate] yielded an IC50 cell viability (ICRF193 0 nM) above 45.8 µM and an IC50 cell viability (ICRF193 200 nM) above 45.8 µM.

Regarding `FC(F)OC(Cl)C(F)(F)F` (stereo not drawn) [Isoflurane], the IC50 cell viability is above 45.8 µM (ICRF193 0 nM) and above 45.8 µM (ICRF193 200 nM).

Take `CC(=NNC(=O)c1ccncc1)C(=O)O` [Isoniazid pyruvate]: the IC50 cell viability was above 45.8 µM (ICRF193 0 nM) and above 45.8 µM (ICRF193 200 nM).

Turning to `O=C(NNCS(=O)(=O)O)c1ccncc1` [Isoniazid sodium methanesulfonate], the IC50 cell viability reads like this: (ICRF193 0 nM) above 45.8 µM; (ICRF193 200 nM) above 45.8 µM.

These data come from the supplement of paper PMC12137928.
